The subject of assay [1] is U2OS-luc control cell line stably expressing luciferase. Briefly: Control constitutive luciferase reporter, U2OS-luc. In kind it is cell-based, human. From the text: Figure S3: Identification of cyclic peptide HIF-1 inhibitors. (A) SICLOPPS expression is induced by arabinose, which processes to give a member of the cyclic peptide library. A dimerization inhibitor would be expected to rescue growth of the HIF-1 RTHS on selective media plates containing IPTG, kanamycin and 3-amino-triazole, and arabinose. (B) The ability of the selected cyclic peptides to […]
HIF-1 RTHS containing the corresponding SICLOPPS plasmid onto selective media. In the absence of arabinose the SICLOPPS split-intein is not produced; the HIF-1 RTHS containing plasmids encoding […]
colonies show survival on selective media plates containing IPTG and arabinose (panel 2). Expressing the 3 selected cyclic peptides from mutant SICLOPPS inteins (H24A, F26A mutations in the C- […]
cyclic form of the peptides and their activity. […]
expressing a constitutive luciferase reporter construct. […]
Background: In a reporter assay the amount or activity of a reporter protein is the signal.

In assay [2] the test system is VEGF mRNA in hypoxic MCF-7 cells. Briefly: VEGF mRNA qPCR, MCF-7. In kind it is cell-based. The note with it: MCF-7, hypoxia 16 h, 100 μM. As to the method: Cells were treated with the stated concentrations of inhibitor (P1, P2, or P3) and incubated in normoxia for 4 h, followed by incubation in a hypoxic environment. All manipulation of cell pellets (e.g., lysis, mRNA, and protein extraction) was conducted in a hypoxic environment.
Total RNA was extracted from MCF-7 and U2OS cells using RNeasy Mini Kit (74104, QIAGEN) and quantified using a Nanodrop ND-1000 spectrophotometer. Complementary DNA was synthesized in a 20 μL reaction containing 1 μg of total RNA, using qScript cDNA SuperMix (95048-100, Quanta Biosciences) according to the manufacturer’s instructions. Quantitative real-time PCRs were performed using Universal Taqman PCR master mix (Applied Biosystems) >and the Taqman gene expression assay of interest (Applied Biosystems) on an ABI StepOnePlus Real-Time PCR system (Applied Biosystems). Expression assays used in this study were HIF-1α (00936376_m1), VEGF-A (Hs00173626_m1), CAIX (Hs00154208_m1), LOX (Hs00942480_m1), HIF2α (Hs01026149_m1), CITED2 (Hs01897804_s1), and 18S (Hs99999901_m1). All expression values were normalized using expression of 18S.
On the technique in general: In qPCR the cycle at which signal appears reflects the starting amount.

Assay [3] deals with HIF-2 (HIF-dependent luciferase reporter, MCF-7 cells). Briefly: HIF-2 luciferase reporter assay, MCF-7. It counts as cell-based. To be noted: MCF-7, transfected HIF-2α. From the text: In addition, P1 had no effect on VEGF protein levels in hypoxic 786-O cells (Figure 6B). To further probe the effect of P1 on HIF-2, a luciferase reporter assay was developed and used. The assay was derived from the HIF-1 luciferase reporter assay detailed above (Figure 2C and D) and adapted for HIF-2 by replacing the plasmid encoding HIF-1α with the equivalent plasmid encoding HIF-2α. […] P2 and P3 also had no effect on HIF-2 in this assay (Figure S9).
Endogenous HIF-1 luciferase reporter assays were conducted as previously reported in U2OS-HRE-luc[15] and MCF-7 cells.[46] For plasmid-expressed HIF-α luciferase reporter assays, MCF-7 and U2OS cells were transiently transfected with plasmids expressing HIF-1α, HIF-2α, or a blank control (pcDNA3.1-HIF-1α, pcDNA3.1-HIF-2α, or pcDNA3.1), a renilla-encoding control (phRL-TK), and a HIF-dependent firefly luciferase reporter construct (pGL2-TK-HRE), using Transfast (Promega) according to the manufacturer’s instructions. After 24 h, cells were recovered and plated (4000 cells/well) in 96-well plates (Perkin-Elmer) and incubated for 5 h before either hypoxic or aerobic incubation in presence or absence of cyclic peptide inhibitors. Firefly and renilla activities were determined using Dual-Glo Reagent (Promega) according to the manufacturer’s instructions. The luciferase signal was normalized using the corresponding renilla values.

Regarding “Tat-cyclo-CRLMVL (head to tail) [P2, cyclo-CRLMVL tagged with Tat peptide via a disulfide bond; used as negative control]”, the “effect on constitutive luciferase signal” value in assay [1] is on record as “do not affect”. In addition, the “VEGF mRNA” value in assay [2] is “had no effect”. Moreover, in assay [3], the “effect on HIF-2 luciferase reporter signal” value was “do not affect”.

(Values after article PMC3715890, “A Cyclic Peptide Inhibitor of HIF-1 Heterodimerization That Inhibits Hypoxia Signaling in Cancer Cells” (Journal of the American Chemical Society, 2013).)
